Data reported in paper PMC6050537, “Inhibition of low-density lipoprotein receptor degradation with a cyclic peptide that disrupts the homodimerization of IDOL E3 ubiquitin ligase” (Chemical Science, 2018).
Like-named read-outs stand apart in the source and are kept apart here. Each block holds one compound with its values, some of them ahead of it. Residues, ends and D or L forms follow the SMILES beside them.

Assays:
[1] = target: T1, 6× His-tagged, full-length IDOL (Homo sapiens, UniProt Q8WY64); assay: Surface plasmon resonance (SPR) affinity for IDOL; format: binding; details: for Kd: SPR, immobilized full-length His-IDOL, saturation at highest concentrations not observed; for binding to IDOL by SPR: linear counterparts of the cyclic peptides
T1 construct: Full length IDOL (1–445) was cloned with a TEV cleavable N-terminal 6xHis tag; made in house; host or cells: Spodoptera frugiperda Sf21 (baculovirus, pFastbac1)
T1 sequence (Q8WY64 1-445): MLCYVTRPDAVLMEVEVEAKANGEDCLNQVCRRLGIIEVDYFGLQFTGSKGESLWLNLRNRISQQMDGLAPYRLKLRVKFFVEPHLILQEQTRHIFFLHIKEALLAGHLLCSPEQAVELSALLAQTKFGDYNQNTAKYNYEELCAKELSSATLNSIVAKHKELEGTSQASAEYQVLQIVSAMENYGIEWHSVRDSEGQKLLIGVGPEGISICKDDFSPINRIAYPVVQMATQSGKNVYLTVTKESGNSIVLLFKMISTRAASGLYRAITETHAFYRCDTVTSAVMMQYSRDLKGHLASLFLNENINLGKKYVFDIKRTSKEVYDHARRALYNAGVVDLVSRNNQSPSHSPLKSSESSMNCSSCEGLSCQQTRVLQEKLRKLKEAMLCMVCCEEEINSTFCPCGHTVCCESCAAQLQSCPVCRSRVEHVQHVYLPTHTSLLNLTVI
Excerpt: We initially assessed the affinity of the 6 selected cyclic peptides for IDOL by surface plasmon resonance (SPR). Although saturation at the highest concentrations was not observed, due to hydrophobic effects, Kd values could be determined for five peptides (Table 1). […] The hit rate for our IDOL screen is in line with that for previous SICLOPPS screens.[21],[25] It should be noted that although cyclo-CTIFLL and cyclo-CTLILF contain the same amino acids, changing the order in which these are arranged results in activity loss.
All measurements were performed on a Biacore S200 (GE healthcare) using running buffer 10 mM HEPES, 300 mM NaCl, 1 mM TCEP, 0.05% Tween 20 and 4% DMSO at pH 8.0. In brief, 6× His-tagged, full-length IDOL was immobilized on a NTA-chip (Xantec), to a final level of ∼6000 RU. The chip was pre-loaded with Ni^2+ to facilitate efficient capture of His-tagged protein onto the chip. The activity of the immobilized protein was confirmed using a reference compound.
Supplementary Figure 2. […] Saturation of binding was not observed due to the hydrophobic nature of the peptides
(1 picture or pasted object on this page, not shown here)

FERM domain of IDOL = tested on: T2, FERM domain of IDOL; assay: 1H 15N HSQC NMR binding to FERM domain (negative control)
T2 construct: made in house; host or cells: E. coli BL21
Excerpt: (§1) The lead candidates, cyclo-CTIFLL and cyclo-CFFLYT, were next analyzed for binding to the RING domain of IDOL by ^1H ^15N HSQC NMR. We also assessed the binding of each peptide to the FERM domain of IDOL as a negative control. […] It should be noted that the 3 residues affected by cyclo-CFFLYT (named RINGPep1) form part of the PPI interface in the crystal structure of the homodimerized RING domains of IDOL (Fig. 1c and ESI Fig. 6 ^†).[15] Furthermore, mutation of V431R coupled with a L433R mutation is known to result in a dimer deficient IDOL.[15]
(§2) ^15N-labeled RING and FERM domains were prepared for NMR experiments by buffer exchange using Amicon Ultra-4 Centrifugal Filter Units with 3 kDa molecular weight cut-off membranes. Buffer conditions for the NMR studies were 50 mM TRIS-d11 pH 7.5, 200 mM NaCl, 3 mM TCEP, 10% (v/v) D2O for the RING domain and 25 mM TRIS-d11, 25 mM NaPi, pH 7.5, 300 mM NaCl, 3 mM TCEP, 10% (v/v) D2O for the FERM domain. The protein concentrations were 80 μM and 70 μM, for the RING and FERM domain respectively. Two-dimensional NMR SOFAST-HMQC titration experiments were carried out on a Bruker 600 MHz spectrometer equipped with a cryoprobe. […]

RING domain of IDOL = tested on: T3, RING domain of IDOL; assay: 1H 15N HSQC NMR binding to RING domain
T3 construct: IDOL RING domain (G356-I445) was expressed as TEV cleavable N-terminal HN6-Lysine-Tag; HN6-Lysine-Tag (TEV-cleavable) (N); made in house; host or cells: E. coli (pET vector)
Excerpt: as §1, §2

6× His IDOL = target: T4, 6× His IDOL (Homo sapiens, UniProt Q8WY64); assay: Microscale thermophoresis (MST) binding to IDOL; details: full length His-IDOL (44 nM)
T4 construct: Full length IDOL (1–445) was cloned with a TEV cleavable N-terminal 6xHis tag; made in house; host or cells: Spodoptera frugiperda Sf21 (baculovirus, pFastbac1)
T4 sequence (Q8WY64 1-445): T1 sequence (Q8WY64 1-445)
Excerpt: We sought to improve the affinity of RINGPep1 prior to assessing its effect in cells. We used alanine-scanning to identify residues that were critical to the activity of RINGpep1; we constructed 5 SICLOPPS plasmids where each amino acid (except the set cysteine, which is required for intein splicing) was replaced with alanine. These plasmids were transformed into the IDOL RTHS and assessed for disruption of IDOL homodimerization by drop-spotting. […] We therefore synthesized a handful of RINGPep1 analogues with the second position containing a non-natural phenylalanine analogue. After purification, the affinity of each of these compounds for IDOL was assessed by MST. […] The ability of RINGpep2 to disrupt IDOL homodimerization was assessed in vitro using a competition assay in which increasing concentrations of IDOL were titrated into a 45 nM solution of dye-labelled IDOL. Binding of non-labelled IDOL to dye-labelled IDOL will be observed in the MST signal, allowing the Kd of IDOL homodimerization to be quantified. Using this approach, we measured a Kd of 2.9 ± 0.1 μM for IDOL homodimerization. The experiment was repeated in the presence of RINGpep2 (100 μM), with the expectation that the apparent Kd of IDOL homodimerization would increase in the presence of an inhibitor of IDOL homodimerization.
MST was performed on a Monilith NT.115 system (Nano Temper Technologies, DE). […]

ΔIDOL HepG2 cells = details: concentrations up to 100 μM, 72 h
Method: (§3) Cell viability was assessed using the CellTiter-Glo 2.0 assay (Promega) according to the manufacturer's instructions. Briefly, cells were plated at a density of 3.3 × 10^4 cells per well in a 96 well plate and incubated overnight (37 °C, 5% CO2). Cells were treated with increasing concentrations of inhibitor and incubated in lipoprotein depleted serum for 72 h (37 °C, 5% CO2). The plate was equilibrated to room temperature for 30 min prior to the addition an equal volume of CellTiter-Glo 2.0 (Promega) reagent to media. The contents were mixed for 2 min on an orbital shaker to induce cell lysis and the plate incubated at room temperature for 10 min prior to the detection of a luminescent signal.
(§4) Supplementary Figure 11. Cellular viability following peptide treatment. The viability of
(§5) (a ) He pG2 a nd (b ) DIDOL He p G2 cells was determined following treatment with increasing
(§6) concentrations of TAT-RINGPe p2 and TAT-ScramPep (100 µM). […]

HepG2 cells = details: concentrations up to 100 μM, 72 h
Method: as §3, §4, §5, §6

[2] = Solubility (qualitative remarks); format: physicochemical

Compound: CC[C@H](C)[C@@H]1NC(=O)[C@H]([C@@H](C)O)NC(=O)[C@H](CS)NC(=O)[C@H](CC(C)C)NC(=O)[C@H](CC(C)C)NC(=O)[C@H](Cc2ccccc2)NC1=O [cyclo-CTIFLL] (HELM PEPTIDE1{C.T.I.F.L.L}$PEPTIDE1,PEPTIDE1,1:R1-6:R2$$$V2.0)
chemical shift changes, FERM domain of IDOL (FERM domain of IDOL): did not observe any chemical shift changes | Kd ([1]; read-out: Kd): 20.9 ± 11 µM | chemical shift changes, RING domain of IDOL (RING domain of IDOL): did not observe any chemical shift changes

Compound: cyclo-CYLFT[Cha] [ScramPep]
binding to IDOL by MST (6× His IDOL): did not bind

Compound: CC[C@H](C)[C@@H]1NC(=O)[C@H](CC(C)C)NC(=O)[C@H]([C@@H](C)O)NC(=O)[C@H](CS)NC(=O)[C@H](Cc2ccccc2)NC(=O)[C@H](CC(C)C)NC1=O [cyclo-CTLILF] (HELM PEPTIDE1{C.T.L.I.L.F}$PEPTIDE1,PEPTIDE1,1:R1-6:R2$$$V2.0)
Kd ([1]; read-out: Kd): ~10000 µM

Compound: CC(C)C[C@@H]1NC(=O)[C@H](Cc2ccc(O)cc2)NC(=O)[C@H](CSSC[C@H](N)C(=O)NCC(=O)N[C@@H](CCCNC(=N)N)C(=O)N[C@@H](CCCCN)C(=O)N[C@@H](CCCCN)C(=O)N[C@@H](CCCNC(=N)N)C(=O)N[C@@H](CCCNC(=N)N)C(=O)N[C@@H](CCC(N)=O)C(=O)N[C@@H](CCCNC(=N)N)C(=O)N[C@@H](CCCNC(=N)N)C(=O)N[C@@H](CCCNC(=N)N)C(=O)N2CCC[C@H]2C(=O)N2CCC[C@H]2C(=O)N[C@@H](CCC(N)=O)C(=O)O)NC(=O)[C@H](CC2CCCCC2)NC(=O)[C@H]([C@@H](C)O)NC(=O)[C@H](Cc2ccccc2)NC1=O [Tat-ScramPep]
toxicity (ΔIDOL HepG2 cells): no toxicity | toxicity (HepG2 cells): no toxicity

Compound: CTIFLL [linear counterpart of cyclo-CTIFLL]
binding to IDOL by SPR [1]: no binding observed

Compound: CC[C@H](C)[C@@H]1NC(=O)[C@H](C(C)C)NC(=O)[C@H](C(C)C)NC(=O)[C@H](CO)NC(=O)[C@H](CS)NC(=O)[C@H](CC(C)C)NC1=O [cyclo-CSVVIL] (HELM PEPTIDE1{C.S.V.V.I.L}$PEPTIDE1,PEPTIDE1,1:R1-6:R2$$$V2.0)
Kd ([1]; read-out: Kd): ~1000 µM

Compound: CC(C)C[C@@H]1NC(=O)[C@H](CC2CCCCC2)NC(=O)[C@H](Cc2ccccc2)NC(=O)[C@H](CS)NC(=O)[C@H]([C@@H](C)O)NC(=O)[C@H](Cc2ccc(O)cc2)NC1=O [RINGPep2, cyclo-CF-Cha-LYT] (HELM PEPTIDE1{C.F.[Cha].L.Y.T}$PEPTIDE1,PEPTIDE1,1:R1-6:R2$$$V2.0)
solubility in the assay buffer ([2]; autoubiquitination assay buffer): poor solubility | water solubility ([2]; compared with the 3-(1-naphthyl)-L-alanine analogue): marginally better

Compound: CC(C)C[C@@H]1NC(=O)[C@H](CC2CCCCC2)NC(=O)[C@H](Cc2ccccc2)NC(=O)[C@H](CSSC[C@H](N)C(=O)NCC(=O)N[C@@H](CCCNC(=N)N)C(=O)N[C@@H](CCCCN)C(=O)N[C@@H](CCCCN)C(=O)N[C@@H](CCCNC(=N)N)C(=O)N[C@@H](CCCNC(=N)N)C(=O)N[C@@H](CCC(N)=O)C(=O)N[C@@H](CCCNC(=N)N)C(=O)N[C@@H](CCCNC(=N)N)C(=O)N[C@@H](CCCNC(=N)N)C(=O)N2CCC[C@H]2C(=O)N2CCC[C@H]2C(=O)N[C@@H](CCC(N)=O)C(=O)O)NC(=O)[C@H]([C@@H](C)O)NC(=O)[C@H](Cc2ccc(O)cc2)NC1=O [Tat-RINGPep2]
toxicity (ΔIDOL HepG2 cells): no toxicity | toxicity (HepG2 cells): no toxicity

Second part, the compound after the results:

Kd [1]: No activity
Compound: CC[C@H](C)[C@@H]1NC(=O)[C@H](Cc2ccccc2)NC(=O)[C@H](C(C)C)NC(=O)[C@H]([C@@H](C)O)NC(=O)[C@H](CS)NC(=O)[C@H]([C@@H](C)CC)NC1=O [cyclo-CTVFII] (HELM PEPTIDE1{C.T.V.F.I.I}$PEPTIDE1,PEPTIDE1,1:R1-6:R2$$$V2.0)

binding to IDOL by SPR [1]: no binding observed
Compound: CFFLYT [linear counterpart of cyclo-CFFLYT]

Kd ([1]; read-out: Kd): ~3000 µM
Compound: CC[C@H](C)[C@@H]1NC(=O)[C@H](CC(C)C)NC(=O)[C@H](Cc2ccccc2)NC(=O)[C@H](CC(C)C)NC(=O)[C@H](CCCNC(=N)N)NC(=O)[C@H](CS)NC1=O [cyclo-CRLFLI] (HELM PEPTIDE1{C.R.L.F.L.I}$PEPTIDE1,PEPTIDE1,1:R1-6:R2$$$V2.0)
